As usually defined, the IC50 is the concentration at which inhibition is half-maximal.

SMILES strings stand for the structures.

Results on 16 compounds are retold here after patent US8871777B2, “Phenylpyrimidone compounds, the pharmaceutical compositions, preparation methods and uses thereof” (Topharman Shanghai Co., Ltd., priority 2008, dated 2014).

Assay [1] addresses T1, PDE6 in bovine retina (Bos taurus, UniProt P11541+P23439).
T1 construct: obtained by suitably treating various tissues and separating the enzyme with FPLC; from tissue; host or cells: bovine retina
T1 sequence (P11541 2-856 limits assumed): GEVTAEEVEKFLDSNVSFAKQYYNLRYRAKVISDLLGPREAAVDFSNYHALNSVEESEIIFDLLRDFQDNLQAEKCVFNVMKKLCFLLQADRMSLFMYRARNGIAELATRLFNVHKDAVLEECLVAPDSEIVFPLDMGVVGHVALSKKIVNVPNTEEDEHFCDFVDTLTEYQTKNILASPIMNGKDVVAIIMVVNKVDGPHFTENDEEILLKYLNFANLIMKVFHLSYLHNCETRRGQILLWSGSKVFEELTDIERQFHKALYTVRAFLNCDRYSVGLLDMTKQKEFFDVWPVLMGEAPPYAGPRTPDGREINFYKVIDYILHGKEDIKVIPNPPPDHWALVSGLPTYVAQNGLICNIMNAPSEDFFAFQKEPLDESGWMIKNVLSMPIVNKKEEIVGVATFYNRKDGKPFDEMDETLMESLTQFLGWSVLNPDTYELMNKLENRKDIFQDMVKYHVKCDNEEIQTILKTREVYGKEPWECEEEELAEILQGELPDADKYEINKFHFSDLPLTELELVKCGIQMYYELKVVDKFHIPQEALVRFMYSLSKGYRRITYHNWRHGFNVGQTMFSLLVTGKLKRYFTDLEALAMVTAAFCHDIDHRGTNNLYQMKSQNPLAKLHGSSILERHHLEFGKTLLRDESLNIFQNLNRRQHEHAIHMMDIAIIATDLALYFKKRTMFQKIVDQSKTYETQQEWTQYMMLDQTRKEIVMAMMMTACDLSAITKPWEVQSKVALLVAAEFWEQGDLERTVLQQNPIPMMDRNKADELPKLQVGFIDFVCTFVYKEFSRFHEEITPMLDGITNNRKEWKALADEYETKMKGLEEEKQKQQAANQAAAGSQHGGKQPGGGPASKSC
T1 sequence (P23439 2-850 limits assumed): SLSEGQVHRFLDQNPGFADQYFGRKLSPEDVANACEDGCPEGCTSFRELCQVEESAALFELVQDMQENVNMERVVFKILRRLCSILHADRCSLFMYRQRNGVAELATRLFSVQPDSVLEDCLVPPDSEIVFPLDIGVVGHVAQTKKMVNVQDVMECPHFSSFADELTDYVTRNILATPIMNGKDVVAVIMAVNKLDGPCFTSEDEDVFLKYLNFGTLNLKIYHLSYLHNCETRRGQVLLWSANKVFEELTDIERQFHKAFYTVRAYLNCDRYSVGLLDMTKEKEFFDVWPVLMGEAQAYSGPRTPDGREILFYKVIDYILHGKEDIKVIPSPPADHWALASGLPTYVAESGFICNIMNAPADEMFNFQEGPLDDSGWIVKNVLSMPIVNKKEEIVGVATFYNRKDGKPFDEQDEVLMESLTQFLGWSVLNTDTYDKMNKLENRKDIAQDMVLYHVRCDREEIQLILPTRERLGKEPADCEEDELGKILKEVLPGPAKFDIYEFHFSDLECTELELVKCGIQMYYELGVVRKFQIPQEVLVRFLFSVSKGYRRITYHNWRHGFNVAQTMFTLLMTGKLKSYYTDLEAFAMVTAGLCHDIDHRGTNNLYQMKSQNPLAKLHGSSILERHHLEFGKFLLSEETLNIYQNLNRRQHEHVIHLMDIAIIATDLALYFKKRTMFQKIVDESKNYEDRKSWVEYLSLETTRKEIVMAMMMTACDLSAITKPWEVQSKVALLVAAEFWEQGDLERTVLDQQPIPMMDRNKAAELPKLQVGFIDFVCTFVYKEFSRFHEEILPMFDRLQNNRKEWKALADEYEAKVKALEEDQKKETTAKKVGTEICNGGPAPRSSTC
Briefly: PDE6 enzyme inhibition activity test (scintillation proximity). It is filed as biochemical. The settings on record: for IC50: PDE6 separated from bovine retina, read-out: PDE6 IC50; for PDE6 IC50/PDE5 IC50: selectivity, ratio of IC50 PDE6/IC50 PDE5. The protocol: More specifically, PDE5 and PDE3 were obtained from human blood platelet, and PDE6 was separated from bovine retina. Upon enzyme was separated out, the enzyme inhibition activity test would be carried out immediately. The said enzyme inhibition activity test was performed by directly detecting the scintillation proximity of AMP/GMP using TRKQ7100 and TRKQ7090 kits, which was generally as follows. In the presence of different concentrations of inhibitor and a small amount of substrate, 10 μl of buffer (50 mM Tris/HCl PH 7.5, 8.3 mM MgCl2, 1.7 mM EGTA) was added, and then water was added to a final volume of 100 μl. The reaction was initiated with a fixed amount of enzyme, incubated at 30° C. for 30 min, and then quenched with 50 μl of yttrium silicate beads comprising zinc sulphate. After shaken for 20 min, the reaction mixture was put in dark and settled for 30 min, and then readed on a BECKMAN LS6500 MULTI-PURPOSE SCINTILLATION COUNTER.
(In a scintillation proximity assay essentially only radioactivity close to the scintillant gives light.)

The target of assay [2] is T2, human blood platelet PDE5 (Homo sapiens, UniProt O76074).
T2 construct: obtained by suitably treating various tissues and separating the enzyme with FPLC; from tissue; host or cells: human blood platelets
Briefly: PDE5 enzyme inhibition activity test (scintillation proximity). The assay is classed as biochemical. The method in brief: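 Enzymes were used immediately after isolation: PDE6 from bovine retina, PDE5 from human platelets. Each was incubated 30 min at 30 °C with varying inhibitor concentrations and a small amount of substrate in Tris/HCl pH 7.5 buffer with MgCl2 and EGTA. Reactions were quenched with zinc-sulphate yttrium silicate SPA beads and product counted by scintillation.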

Consider `CCCOc1ccc(S(=O)(=O)N(CCO)CCN2CCOCC2)cc1-c1nc(CC)c(CC)c(=O)[nH]1` [Example 135, 5,6-diethyl-2-(2-n-propoxy-5-(N-(2-morpholinylethyl)-N-(2-hydroxyethyl)aminosulfonyl)phenyl)pyrimid-4(3H)-one], for which the figures for the IC50 in assay [1], in assay [2] (PDE5 table) and in assay [2] (as repeated in the PDE6 table) were 9.66 nM, 1.01 nM and 1.01 nM, respectively. Further, the “PDE6 IC50/PDE5 IC50” value in assay [1] came to 9.6.

`CCCOc1ccc(C(=O)NC(Cc2ccccc2)C(=O)O)cc1-c1nc(CC)c(CC)c(=O)[nH]1` (stereo not shown) [Example 138, 2-(3-(4,5-diethyl-1,6-dihydro-6-oxopyrimidin-2-yl)-4-n-propoxybenzamido)-3-phenylpropionic acid]: the 50% inhibitory concentration (IC50) was 5.42 nM in assay [1], 0.47 nM in assay [2] (PDE5 table) and 0.47 nM in assay [2] (as repeated in the PDE6 table). Besides, the “PDE6 IC50/PDE5 IC50” value in assay [1] is 11.4.

In the case of `CCCOc1ccc(C(=O)N2CCCC2C(=O)OC)cc1-c1nc(CC)c(CC)c(=O)[nH]1` (stereo not shown) [Example 139], the IC50 in assay [1] amounted to 7.82 nM; in assay [2] (PDE5 table) it was 0.61 nM; in assay [2] (as repeated in the PDE6 table) it was 0.61 nM. The “PDE6 IC50/PDE5 IC50” value in assay [1] stood at 12.8.

On to `CCCOc1ccc(C(=O)NC(Cc2ccc(O)cc2)C(=O)OC)cc1-c1nc(CC)c(CC)c(=O)[nH]1` (stereo not shown) [Example 140, methyl 2-(3-(4,5-diethyl-1,6-dihydro-6-oxopyrimidin-2-yl)-4-n-propoxybenzamido)-3-(4-hydroxyphenyl)propionate], for which the IC50 stood at 4.25 nM in assay [1], 0.57 nM in assay [2] (PDE5 table) and 0.57 nM in assay [2] (as repeated in the PDE6 table). In assay [1], the “PDE6 IC50/PDE5 IC50” value amounted to 7.5.

On to `CCCOc1ccc(C(=O)NC(C)C(=O)O)cc1-c1nc(CC)c(CC)c(=O)[nH]1` (stereo not shown) [Example 145, 2-(3-(4,5-diethyl-1,6-dihydro-6-oxopyrimidin-2-yl)-4-n-propoxybenzamido)propionic acid], for which the IC50 in assay [1] is 24.2 nM; in assay [2] (PDE5 table), 0.47 nM; in assay [2] (as repeated in the PDE6 table), 0.47 nM. Also, in assay [1], the “PDE6 IC50/PDE5 IC50” value was 51.5.

For the compound `CCCOc1ccc(C(=O)NC(CC(N)=O)C(=O)O)cc1-c1nc(CC)c(CC)c(=O)[nH]1` (stereo not shown) [Example 146, 2-(3-(4,5-diethyl-1,6-dihydro-6-oxopyrimidin-2-yl)-4-n-propoxybenzamido)-3-aminoformylpropionic acid], the IC50 in assay [1] was 6.64 nM; in assay [2] (PDE5 table), 0.93 nM; in assay [2] (as repeated in the PDE6 table), 0.93 nM. Moreover, the “PDE6 IC50/PDE5 IC50” value in assay [1] was 7.2.

Turning to `CCCOc1ccc(C(=O)NC(Cc2ccccc2)C(=O)OC)cc1-c1nc(CC)c(CC)c(=O)[nH]1` (stereo not shown) [Example 150, methyl 2-(3-(4,5-diethyl-1,6-dihydro-6-oxopyrimidin-2-yl)-4-n-propoxybenzamido)-3-phenylpropionate], the figures for the IC50 in assay [1], in assay [2] (PDE5 table) and in assay [2] (as repeated in the PDE6 table) were 2.78 nM, 0.52 nM and 0.52 nM, respectively. In addition, the “PDE6 IC50/PDE5 IC50” value in assay [1] is listed as 5.3.

With `CCCOc1ccc(C(=O)NC(C)C(=O)N2CCN(C)CC2)cc1-c1nc(CC)c(CC)c(=O)[nH]1` (stereo not drawn) [Example 154, 3-(4,5-diethyl-1,6-dihydro-6-oxopyrimidin-2-y1)-N-(1-(4-methylpiperazin-l-yl)-1-oxopropan-2-y1)-4-n-propoxybenzamide], the IC50 stood at 37.9 nM in assay [1], 0.4 nM in assay [2] (PDE5 table) and 0.4 nM in assay [2] (as repeated in the PDE6 table). In assay [1], the “PDE6 IC50/PDE5 IC50” value was 94.6.

With `CCCOc1ccc(C(=O)N2CCN(CCOCCO)CC2)cc1-c1nc(CC)c(CC)c(=O)[nH]1` [Example 163], the IC50 in assay [1] turned out to be 48.6 nM; in assay [2] (PDE5 table), 7.92 nM; in assay [2] (as repeated in the PDE6 table) it was 7.92 nM. For the same compound, the “PDE6 IC50/PDE5 IC50” value in assay [1] is reported as 6.1.

With `CCCOc1ccc(C(=O)N2CCN(CCO)CC2)cc1-c1nc(CC)c(CC)c(=O)[nH]1` [Example 164], the figures for the IC50 in assay [1], in assay [2] (PDE5 table) and in assay [2] (as repeated in the PDE6 table) were 31.8 nM, 0.46 nM and 0.46 nM, respectively. For the same compound, in assay [1], the “PDE6 IC50/PDE5 IC50” value was 68.7.

As for `CCCOc1ccc(C(=O)NC(C)CO)cc1-c1nc(CC)c(CC)c(=O)[nH]1` (stereo not shown) [Example 166, 3-(4,5-diethyl-1,6-dihydro-6-oxopyrimidin-2-yl)-N-(1-hydroxyprop-2-yl)-4-n-propoxybenzamide], the IC50 amounted to 5.15 nM in assay [1], 0.33 nM in assay [2] (PDE5 table) and 0.33 nM in assay [2] (as repeated in the PDE6 table). Besides, in assay [1], the “PDE6 IC50/PDE5 IC50” value is on record as 15.6.

Consider `CCCOc1ccc(C(=O)NCCCS(=O)(=O)O)cc1-c1nc(CC)c(CC)c(=O)[nH]1` [Example 169, 3-(3-(4,5-diethyl-1,6-dihydro-6-oxopyrimidin-2-yl)-4-n-propoxybenzamido)propyl-1-sulfonic acid], for which the IC50 in assay [1] stood at 10.4 nM; in assay [2] (PDE5 table), 0.11 nM; in assay [2] (as repeated in the PDE6 table), 0.11 nM. Also, the “PDE6 IC50/PDE5 IC50” value in assay [1] is 91.3.

On to `CCCOc1ccc(C(=O)NC2CCC(C(=O)OC)NC2)cc1-c1nc(CC)c(CC)c(=O)[nH]1` (stereo not shown) [Example 174, methyl 5-(3-(4,5-diethyl-1,6-dihydro-6-oxopyrimidin-2-yl)-4-n-propoxybenzamido)piperidine-2-formate], for which the IC50 in assay [1] came out at 13.7 nM; in assay [2] (PDE5 table), 0.45 nM; in assay [2] (as repeated in the PDE6 table), 0.45 nM. Further, the “PDE6 IC50/PDE5 IC50” value in assay [1] came out at 30.3.

`CCCOc1ccc(NC(=O)c2ccccc2)cc1-c1nc(CC)c(CC)c(=O)[nH]1` [Example 186, N-(3-(4,5-diethyl-1,6-dihydro-6-oxopyrimidin-2-yl)-4-n-propoxyphenyl)benzamide]: the results for the IC50 in assay [1], in assay [2] (PDE5 table) and in assay [2] (as repeated in the PDE6 table) were 7.4 nM, 0.34 nM and 0.34 nM, respectively. Also, the “PDE6 IC50/PDE5 IC50” value in assay [1] was 21.4.

With `CCCOc1ccc(NC(=O)NCCN(CC)CC)cc1-c1nc(CC)c(CC)c(=O)[nH]1.O=C(O)/C=C\C(=O)O` [Example 204, 1-(2-(Diethylamino)ethyl)-3-(3-(4,5-diethyl-1,6-dihydro-6-oxopyrimidin-2-yl)-4-n-propoxyphenyl)urea maleate], the IC50 in assay [1] amounted to 54.5 nM; in assay [2] (PDE5 table), 0.88 nM; in assay [2] (as repeated in the PDE6 table) it was 0.88 nM. Besides, the “PDE6 IC50/PDE5 IC50” value in assay [1] was 61.9.

For the compound `CCCOc1ccc(C(=O)N2CCN(C)CC2)cc1-c1nc(CC)c(CC)c(=O)[nH]1` [Example 205], the IC50 turned out to be 17.2 nM in assay [1], 1.93 nM in assay [2] (PDE5 table) and 1.93 nM in assay [2] (as repeated in the PDE6 table). Moreover, the “PDE6 IC50/PDE5 IC50” value in assay [1] amounted to 8.9.
